Reference: patent publication US20120071459A1, “BIS-PYRIDYLPYRIDONES AS MELANIN-CONCENTRATING HORMONE RECEPTOR 1 ANTAGONISTS” (GlaxoSmithKline LLC, priority 2009, published 2012)

Target: T1, hMCHR1 (Homo sapiens, UniProt Q99705)
T1 construct: expressed in transfected cells; host or cells: HEK293
Experiment: MCHR1 pIC50 Determination FLIPR Assay
Type: cell-based
Conditions: HEK293 cells stably transfected with hMCHR1; MCH challenge at 4xEC50; in at least one experimental run
Protocol: MCHR1 pIC50 Determination FLIPR™ Assay: HEK293 cells stably transfected with hMCHR1 were propagated as adherent cultures at 37° C. in a humidified incubator. Cells were split 1:8 at 90% confluency two times per week. New cell stocks were recovered from storage every two months. Cells were plated in black 384-well plates (Greiner) 24 hours prior to assay at 15,000 cells/well in 50 μL DMEM/F12, 10% FBS, 2 mM l-glutamine. Compounds to be profiled were prepared by making a stock solution at 3×10^−3M in 100% DMSO. The stock solutions were serially diluted 1:4 in 100% DMSO using JANUS (PerkinElmer) liquid handling instrument to allow for an 11 point curve in singlicate. At the time of the assay, the media was removed from the cell plate by aspiration, followed by the addition of 20 μL of loading buffer (Calcium 4 Kit, […]). Following 50 min incubation at 37° C., 10 μL of compound was added to the plates via the FLIPR™ instrument ([…]). The plates were incubated at room temperature for 15 minutes along with an MCH peptide agonist challenge plate. On the FLIPR™, a basal response was collected over 10 seconds followed by the addition of 10 μL of MCH challenge concentration at 4×EC50. Data was collected over 4 minutes and subjected to a nonlinear regression analysis curve fitting program to generate pIC50s.

T1 sequence (Q99705 whole entry): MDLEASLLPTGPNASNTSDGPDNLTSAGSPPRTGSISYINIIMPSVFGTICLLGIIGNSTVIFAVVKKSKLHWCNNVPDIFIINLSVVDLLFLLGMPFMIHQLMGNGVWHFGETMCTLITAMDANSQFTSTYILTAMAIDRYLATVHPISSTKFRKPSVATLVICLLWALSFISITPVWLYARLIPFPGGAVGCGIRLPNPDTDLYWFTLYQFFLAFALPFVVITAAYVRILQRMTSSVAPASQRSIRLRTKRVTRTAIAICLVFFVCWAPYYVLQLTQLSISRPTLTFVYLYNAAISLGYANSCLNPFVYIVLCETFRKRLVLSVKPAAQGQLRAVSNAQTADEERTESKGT

Point of comparison: O=C1N(c2ccc(-n3ccc(OCc4ccc(Cl)cn4)cc3=O)cn2)CC12CCNCC2 [Example 4, 4-{[(5-chloro-2-pyridinyl)methyl]oxy}-6′-(1-oxo-2,7-diazaspiro[3.5]nonan-2-yl)-2H-1,3′-bipyridin-2-one], IC50 49 nM. Against it:
- O=C1CC2(CCCN(c3ccc(-n4ccc(OCc5ccc(Cl)cn5)cc4=O)cn3)C2)C(=O)N1 (stereo not drawn) [Example 11] — within 1.5-fold, 50 nM
- O=c1cc(OCc2ccc(Cl)cn2)ccn1-c1ccc(N2CCC3(CC2)CNC3)nc1 [Example 12] — within 1.5-fold, 54 nM
